According to patent US11518764B2, “Substituted heteroaryls as inhibitors of the BCL6 BTB domain protein-protein interaction” (Ontario Institute for Cancer Research (OICR), priority 2018, dated 2022):
Where two headings read alike, the source gives them in different places.

Assays:
[1] = test system: Karpas422 cells; assay: Tumor cell growth inhibition assay; type: cell-based
Method: Tumor Cell Growth inhibition Assay
Karpas422 cells were seeded into a 96-well plate at 2,000 cells/well in 150 ul medium (Alpha-MEM containing 10% FBS, […] Normocin, and […] Gentamycin, Invitrogen). A HP D300 digital dispenser was used to dose cells with DMSO or test compounds across a 10-point range of concentrations (high dose of 5 uM), and cultures were grown in a humidified 5% CO2 incubator at 37° C. After six days, plates were removed from incubator and equilibrated to room temperature. An equal volume of ATPlite assay reagent was added to each well, and samples were processed according to manufacturer's instructions (Perkin Elmer). Luminescent signal was measured using an Envision plate reader equipped with a US-Luminescence detector.

[2] = target: BCL6 BTB domain (Homo sapiens (Human), UniProt P41182); assay: Surface plasmon resonance (SPR) assay; type: binding; settings: BCL6 BTB domain captured on SA chip, single cycle kinetics
[3] = test system: BCL6 reporter construct (3xBCL6-TK-Luc) in SuDHL4 cells; assay: Cell-based luciferase assay; settings: Homo sapiens, SU-DHL-4, 48 h, read-out: Luciferase-Assay EC50, uM), SuDHL4-3xBCL6-TK-Luc cells, two days, high dose 10 uM
Method: Cell-Based Luciferase Assay
A BCL6 reporter construct containing three copies of the consensus BCL6 binding site, the TK promoter, and the firefly luciferase gene was stably expressed in SuDHL4 cells after lentivirus infection and selection with Blasticidin. SuDHL4-3×BCL6-TK-Luc cells were seeded into a Viewplate 384-well assay dish at 15,000 cells/well in 25 ul medium (Alpha-MEM high glucose containing 10% FBS, 25 mM HEPES, […] GlutaMAX, 100 ug/ml Normocin, and […] Gentamycin, Invitrogen). A HP D300 digital dispenser was used to dose cells with DMSO or test compounds across a 10-point range of concentrations (high dose of 10 uM), and cultures were grown in a humidified 5% CO2 incubator at 37° C. After two days, plates were removed from the incubator and equilibrated to room temperature. An equal volume of neolite reporter gene assay reagent was added to each well, and samples were processed according to manufacturer's instructions (Perkin Elmer). Luminescent signal was measured using an Envision plate reader equipped with a US-Luminescence detector.

[4] = Homo sapiens, KARPAS-422, 144 h, read-out: Tumor Growth Inhibition in Karpas-422 (IC50, uM), Karpas422 cells, six days, ATPlite

SMILES | IC50 [1, 4] [µM] | Kd [2] [nM] | EC50 [3] [µM] | IC50 ([1]; read-out: Tumor Growth Inhibition in Karpas-422 (IC50), Karpas422 cells, six days, ATPlite) [µM]
Cn1cnc2c(c(-c3cc(F)c(O)c(C(N)=O)c3)cn2CC(=O)Nc2cc(N3C4CCC3CN(CC(F)(F)F)C4)ncc2Cl)c1=O [Compound I-467] | 0.496 | 175 | 1.23 | 
CN1C(C)(C)CN(c2cc(NC(=O)Cn3cc(-c4cc(C(N)=O)c(O)c(F)c4F)c4c(=O)n(C)cnc43)c(Cl)cn2)CC1(C)C [Compound I-369] | 2.8 | 159 | 2.2 | 
Cn1cnc2c(c(-c3cc(Cl)c(O)c(C(N)=O)c3)cn2CC(=O)Nc2cc3cnn(C)c3cc2Cl)c1=O [Compound I-181] | 10 | 617 | 33 | 
Cn1cnc2c(c(-c3cc(C(N)=O)c(O)c(F)c3F)cn2CC(=O)Nc2cc(N3CCOCC3)c(F)cc2Cl)c1=O [Compound I-227] | 2.16 | 420 | 2.5 | 
CCN1CCN(c2cc(NC(=O)Cn3cc(-c4cc(F)c(O)c(C(N)=O)c4)c4c(=O)n(C)cnc43)c(Cl)cn2)[C@@H](C)C1 [Compound I-390] | 0.0483 | 6.18 | 0.0677 | 
CO[C@H]1CN(c2cc(NC(=O)Cn3cc(-c4cc(Cl)c(O)c(C(N)=O)c4)c4c(=O)n(C)c(C)nc43)c(Cl)cn2)C[C@H]1F [Compound I-401] | 1.22 | 28.9 | 0.427 | 
CC(C)[C@H]1CN(C)CCN1c1cc(NC(=O)Cn2cc(-c3cc(Cl)c(O)c(C(N)=O)c3)c3c(=O)n(C)cnc32)c(Cl)cn1 [Compound I-360] | 0.778 | 30.9 | 0.659 | 
Cn1cnc2c(c(-c3cc(F)c(O)c(C(N)=O)c3)cn2CC(=O)Nc2cc(N3CCCC3)ncc2Cl)c1=O [Compound I-273] | 0.251 | 5.31 | 0.416 | 
CN(C)c1cc(NC(=O)Cn2cc(-c3cc(Cl)c(O)c(C(N)=O)c3)c3c(=O)n(C)c(Cl)nc32)c(Cl)cn1 [Compound I-292] | 0.575 | 81.2 | 1.66 | 
COCCN1CCN(c2cc(NC(=O)Cn3cc(-c4cc(C(N)=O)c(O)c(F)c4F)c4c(=O)n(C)cnc43)c(Cl)c(F)n2)[C@@H](C)C1 [Compound I-446] | 0.137 | 7.29 | 0.157 | 
Cn1cnc2c(c(-c3cc(Cl)c(O)c(C(N)=O)c3)cn2CC(=O)Nc2cc(N3CCOC(C)(C)C3)ncc2Cl)c1=O [Compound I-147] | 0.0995 | 19.6 | 0.144 | 
Cn1cnc2c(c(-c3cc(C(N)=O)c(O)c(F)c3F)cn2CC(=O)Nc2cc(NCCCO)nc(F)c2Cl)c1=O [Compound I-481, 5-(7-(2-((3-chloro-2-fluoro-6-((3-hydroxypropyl)amino)pyridin-4-yl)amino)-2-oxoethyl)-3-methyl-4-oxo-4,7-dihydro-3H-pyrrolo[2,3-d]pyrimidin-5-yl)-3,4-difluoro-2-hydroxybenzamide] | 10 | 19.2 | 19.4 | 
C[C@@H]1CN(c2cc(NC(=O)Cn3cc(-c4cc(C(N)=O)c(O)c(F)c4F)c4c(=O)n(C)cnc43)c(Cl)cn2)C[C@H](C)O1 [Compound I-179] | 0.681 | 77.7 | 0.612 | 
C[C@H]1COCCN1c1cc(NC(=O)Cn2cc(-c3cc(C(N)=O)c(O)c(F)c3F)c3c(=O)n(C)cnc32)c(Cl)c(F)n1 [Compound I-317] | 0.467 | 54.9 | 0.633 | 
CN(C)c1cc(NC(=O)Cn2cc(-c3cc(Cl)c(O)c(C(N)=O)c3)c3c(=O)[nH]c(Cl)nc32)c(Cl)cn1 [Compound I-293] | 2.44 | 18.3 | 10 | 
Cn1cnc2c(c(-c3cc(Cl)c(O)c(C(N)=O)c3)cn2CC(=O)Nc2c(Cl)cnc(N3CCOCC3)c2F)c1=O [Compound I-185] |  | 118 | 3.44 | 2.2
CN(C)c1cc(NC(=O)Cn2cc(-c3cc(Cl)c(O)c(C(N)=O)c3)c3c(=O)n(C)c(NCc4ccc(F)cc4)nc32)c(Cl)cn1 [Compound I-129] | 0.866 | 44 | 2.62 | 
C[C@H]1COCCN1c1cc(NC(=O)Cn2cc(-c3cc(C(N)=O)c(O)c(F)c3F)c3c(=O)n(C)cnc32)c(F)cn1 [Compound I-397] | 2.54 | 98.3 | 3.31 | 
Cc1nc2c(c(-c3cc(C(N)=O)c(O)c(F)c3F)cn2CC(=O)Nc2cc(N3CCN(C4CC4)C[C@@H]3C)ncc2Cl)c(=O)n1C [Compound I-379] | 0.853 | 68.6 | 0.664 | 

SMILES | IC50 [1, 4] [µM] | Kd [2] [nM] | EC50 [3] [µM] | IC50 ([1]; read-out: Tumor Growth Inhibition in Karpas-422 (IC50), Karpas422 cells, six days, ATPlite) [µM]
CN1C(C)(C)CN(c2cc(NC(=O)Cn3cc(-c4cc(F)c(O)c(C(N)=O)c4)c4c(=O)n(C)cnc43)c(Cl)cn2)CC1(C)C [Compound I-221] | 0.11 | 14.1 | 0.14 | 
C[C@@H]1CN(c2cc(NC(=O)Cn3cc(-c4cc(F)c(O)c(C(N)=O)c4)c4c(=O)n(C)cnc43)c(Cl)cn2)C[C@H](C)N1 [Compound I-218] | 0.563 | 16.4 | 0.975 | 
CCN1CCN(c2cc(NC(=O)Cn3cc(-c4cc(F)c(O)c(C(N)=O)c4)c4c(=O)n(C)cnc43)c(Cl)c(F)n2)[C@@H](C)C1 [Compound I-428] | 0.0682 | 2.35 | 0.102 | 
CN(C)C1CN(c2cc(NC(=O)Cn3cc(-c4cc(Cl)c(O)c(C(N)=O)c4)c4c(=O)n(C)cnc43)c(Cl)cn2)C1 [Compound I-347] | 0.454 | 57.4 | 0.603 | 
COC[C@@H]1COCCN1c1cc(NC(=O)Cn2cc(-c3cc(Cl)c(O)c(C(N)=O)c3)c3c(=O)n(C)cnc32)c(Cl)cn1 [Compound I-150] | 0.124 | 12.8 | 0.184 | 
C[C@H]1CN(CC2CC2)CCN1c1cc(NC(=O)Cn2cc(-c3cc(F)c(O)c(C(N)=O)c3)c3c(=O)n(C)cnc32)c(Cl)cn1 [Compound I-303] | 0.0323 | 6.36 | 0.0493 | 
C[C@H]1CN(C2CCC2)CCN1c1cc(NC(=O)Cn2cc(-c3cc(C(N)=O)c(O)c(F)c3F)c3c(=O)n(C)cnc32)c(Cl)cn1 [Compound I-359] | 1.34 | 42.2 | 0.521 | 
C[C@@H](C1CC1)N1CCN(c2cc(NC(=O)Cn3cc(-c4cc(C(N)=O)c(O)c(F)c4F)c4c(=O)n(C)cnc43)c(Cl)cn2)[C@@H](C)C1 [Compound I-424] | 0.157 | 26.1 | 0.309 | 
CCN1CCN(c2cc(NC(=O)Cn3cc(-c4cc(C(N)=O)c(O)c5c4OCO5)c4c(=O)n(C)cnc43)c(Cl)c(F)n2)[C@@H](C)C1 [Compound I-357] | 0.0288 | 1.86 | 0.0322 | 
C[C@H]1COCCN1c1cc(NC(=O)Cn2cc(-c3cc(C(N)=O)c(O)c(Cl)c3F)c3c(=O)n(C)cnc32)c(Cl)c(F)n1 [Compound I-409] | 1.82 | 95.2 | 2.34 | 
Cn1cnc2c(c(-c3cc(Cl)c(O)c(C(N)=O)c3)cn2CC(=O)Nc2ccc(C#N)cc2Cl)c1=O [Compound I-384] | 0.8 | 115 | 1.18 | 
CO[C@H]1CN(c2cc(NC(=O)Cn3cc(-c4cc(Cl)c(O)c(C(N)=O)c4)c4c(=O)n(C)c(C)nc43)c(Cl)c(F)n2)C[C@H]1F [Compound I-400] | 0.408 | 27.8 | 0.204 | 
Cn1cnc2c(c(-c3cc(C(N)=O)c(O)c(F)c3F)cn2CC(=O)Nc2cc(N3Cc4ccncc4C3)ncc2Cl)c1=O [Compound I-468] | 0.417 | 23.5 | 0.461 | 
Cn1cnc2c(c(-c3cc(C(N)=O)c(O)c(F)c3F)cn2CC(=O)Nc2cc(N3CCOCC3)nc(F)c2Cl)c1=O [Compound I-318] | 0.319 | 51.8 | 0.228 | 
CC(C)[C@@H]1CN(c2cc(NC(=O)Cn3cc(-c4cc(Cl)c(O)c(C(N)=O)c4)c4c(=O)n(C)cnc43)c(Cl)cn2)CCO1 [Compound I-205] | 0.457 | 43.6 | 0.248 | 
C[C@H]1CN(C2CC2)CCN1c1cc(NC(=O)Cn2cc(-c3cc(Cl)c(O)c(C(N)=O)c3)c3c(=O)n(C)cnc32)c(Cl)cn1 [Compound I-296] | 0.209 | 33.4 | 0.271 | 
CC1N=CC(C#CCn2cnc3c(c(-c4cc(C(N)=O)c(O)c(F)c4F)cn3CC(=O)Nc3cc(N4CCN(C)C[C@@H]4C)nc(F)c3Cl)c2=O)=N1 (stereo partly drawn) [Compound I-456] | 0.0554 | 1.87 | 0.0858 | 
CCCN1CCN(c2cc(NC(=O)Cn3cc(-c4cc(C(N)=O)c(O)c(F)c4F)c4c(=O)n(C)cnc43)c(Cl)cn2)[C@@H](C)C1 [Compound I-394] | 0.269 | 38.4 | 0.313 | 
